Measurements taken from paper PMC4311633, “Effects of RAMEA-complexed polyunsaturated fatty acids on the response of human dendritic cells to inflammatory signals” (Beilstein Journal of Organic Chemistry, 2014).

Assays:
[1] = Solubility in 20% randomly methylated CD solutions and complexation efficiency, DHA; assay type: physicochemical; conditions: calculated from solubility data in 20% CD solution, 24 h, rt
Description: (§1) The complexation efficiency calculated from the solubility data characterize the affinity of the various methylated CDs toward the lipids studied (Table 1). The complex association constants were not calculated because the intrinsic solubility in water is so low that it cannot be determined with a precision sufficient for the calculations.
(§2) The solubility of fatty acids in CD solutions was determined by adding PUFAs to the aqueous solutions at 20% RAMEA, RAMEB or RAMEG, respectively, stirring for 24 h at rt and then analyzed the filtered saturated solutions by HPLC using Hypersil ODS column (4 × 125 mm, particle size 5 μm) with guard column, mobile phase: acetonitrile/water 75:25 with 0.15% concentrated phosphoric acid, 2.0 mL/min flow rate, at 40 °C and UV detection at 210 nm.

[2] = Solubilization of n−3 PUFAs in aqueous methylated CD solutions; assay type: physicochemical; conditions: aqueous solution of 20% CD vs distilled water
Description: Cyclodextrins (CDs) are efficient solubilizers of lipids. […] The solubilizing effect of RAMEA in the case of n−3 PUFAs seems to be high enough for using it as a solubilizer without the risk of interaction with cholesterol-rich lipid rafts in the cell membrane.
as §2

[3] = Solubility in 20% randomly methylated CD solutions and complexation efficiency, EPA; assay type: physicochemical; conditions: calculated from solubility data in 20% CD solution, 24 h, rt
Description: as §1, §2

[4] = Solubility in 20% randomly methylated CD solutions and complexation efficiency, ALA; assay type: physicochemical; conditions: calculated from solubility data in 20% CD solution, 24 h, rt
Description: as §1, §2

[5] = Solubility in 20% randomly methylated CD solutions and complexation efficiency, cholesterol; assay type: physicochemical; conditions: for Solubilization of cholesterol: aqueous solution of 20% CD vs distilled water; for Complexation efficiency for Cholesterol: calculated from solubility data in 20% CD solution, 24 h, rt
[6] = test system: GPR120 receptor expression in moDC; test: GPR120 expression in moDC by Q-PCR; assay type: cell-based, human; conditions: 20 µM/mL; LPS-activated moDC; Q-PCR normalized to cyclophilin
Description: (§3) Peripheral blood mononuclear cells (PBMC) were separated from buffy coats by Ficoll gradient centrifugation (Amersham Biosciences, Uppsala, Sweden). Monocytes were isolated by positive selection using magnetic cell separation with anti-CD14-conjugated microbeads (Miltenyi Biotech, Bergisch Gladbach, Germany). […] The purified cells were cultured at a density of 10^6 cells/mL in serum free AIMV medium supplemented with 80 ng/mL granulocyte-macrophage colony stimulating factor (GM-CSF) purchased from Gentaur and 50 ng/mL IL-4 from Peprotech.
(§4) On day 0 and day 2 of the in vitro moDC differentiation process the cultures were supplemented with GM-CSF and IL-4 and were treated with 20 µM/mL n−3 PUFAs. On day 5 the fully differentiated cells were activated by 500 ng/mL bacterial lipopolysaccharide (LPS) (Sigma Aldrich) or by 500 ng/mL Poly(I:C) (InvivoGen, San Diego, CA, USA) or were left untreated. The negative controls were treated by DMSO or by 20 µM/mL RAMEA. The positive controls were stimulated by LPS or Poly(I:C) in the absence of PUFAs.
GPR120 expression levels were measured by real-time quantitative PCR (Q-PCR). […] Q-PCR was performed using the ABI StepOne Real Time PCR System (Applied Biosystems) and cycle threshold values were determined by using the StepOne v2.1 Software (Applied Biosystems).

[7] = test system: CD1a cell surface protein in moDC; test: CD1a cell surface expression in moDC by flow cytometry; assay type: cell-based, human; conditions: 20 µM/mL, resting, LPS- or Poly(I:C)-activated moDC; for Expression of CD1a protein on the surface of moDC: RAMEA-complexed PUFA compared with DMSO/ethanol form
Description: as §3, §4
Phenotyping of moDC was performed by flow cytometry using anti-CD83-PE and anti-CD1a-FITC specific antibodes from BioLegend at the protein level (San Diego, CA, USA). Fluorescence intensities were measured with FACSCalibur (BD Biosciences). Data analysis was performed with the FlowJo software (Tree Star, Ashland, OR, USA).

| Compound | Complexation efficiency for DHA [1] | Solubilization of n−3 PUFAs [2] | Complexation efficiency for EPA [3] | Complexation efficiency for ALA [4] | Solubilization of cholesterol [5] | Complexation efficiency for Cholesterol [5] | GPR120 receptor expression [6] | Proportion of inflammatory CD1a+ cells ([7]; PUFA dissolved in DMSO/ethanol) | Expression of CD1a protein on the surface of moDC [7] |
| --- | --- | --- | --- | --- | --- | --- | --- | --- | --- |
| randomly methylated α-cyclodextrin [RAMEA] | 0.10 | solubilized | 0.21 | 0.25 | Neither RAMEA nor RAMEG could solubilize cholesterol to a measurable extent | <0.001 | – | – | – |
| randomly methylated β-cyclodextrin [RAMEB] | 0.35 | solubilized | 0.41 | 0.43 | cholesterol could be dissolved by RAMEB only | 0.08 | – | – | – |
| CC/C=C\C/C=C\C/C=C\C/C=C\C/C=C\C/C=C\CCC(=O)O [DHA, docosahexaenoic acid] | – | – | – | – | – | – | induced preferentially by DHA | more efficient in decreasing the proportion of inflammatory CD1a^+ cells, than ALA or EPA | solubilization method did not influence the effects |
| CC/C=C\C/C=C\C/C=C\CCCCCCCC(=O)O [ALA, α-linoleic acid] | – | – | – | – | – | – | – | – | solubilization method did not influence the effects |
